Experimental data: patent US20140213513A1 (Sanofi, priority 2012, published 2014)
*1 amine or outer side, *2 acyl side, *3 side chain or, on linkers, in order; H or OH if unused. Where a SMILES comes first, the peptide text is derived from it. Side-chain parts run from the residue outwards. [ ]: non-standard residue; d: D form. The star is where a group is joined. γGlu = O=C(O)[C@H](CCC(=O)[*:2])N[*:1]; Palmitoyl = CCCCCCCCCCCCCCCC(=O)*; Aib = CC(C)(N)C(=O)O

Experiments:
Type in all cases: cell-based
Conditions in all cases: Table 7; cAMP formation
[1] = target: T1, human GLP-1 receptor (hGLP-1 R) (Homo sapiens, UniProt P43220); experiment: cAMP response of HEK-293 cells stably expressing human GLP-1 receptor (HTRF)
T1 construct: expressed in transfected cells
T1 sequence (P43220 24-463): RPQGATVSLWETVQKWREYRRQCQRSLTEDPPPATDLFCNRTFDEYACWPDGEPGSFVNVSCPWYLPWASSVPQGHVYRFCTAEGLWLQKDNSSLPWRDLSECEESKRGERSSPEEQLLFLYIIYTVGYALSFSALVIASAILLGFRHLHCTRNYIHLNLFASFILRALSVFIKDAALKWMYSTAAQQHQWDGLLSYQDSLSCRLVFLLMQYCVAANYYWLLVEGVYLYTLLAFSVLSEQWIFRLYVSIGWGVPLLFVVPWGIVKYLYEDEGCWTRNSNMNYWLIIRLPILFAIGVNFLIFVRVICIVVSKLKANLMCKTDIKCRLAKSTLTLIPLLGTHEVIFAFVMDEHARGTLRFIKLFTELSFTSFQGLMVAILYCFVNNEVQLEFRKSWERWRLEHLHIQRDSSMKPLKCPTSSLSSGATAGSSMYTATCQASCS
In short: (§1)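 After near-confluent growth in DMEM with 10% FBS, cells were washed in Ca/Mg-free PBS, lifted with accutase and diluted to 400000 cells/ml in IBMX (2 mM)-containing HEPES-buffered HBSS with 0.1% BSA. Compounds were applied for 30 minutes at room temperature before homogeneous time-resolved fluorescence quantitation of cAMP.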

[2] = target: T2, human glucagon receptor (hGLUC R) (Homo sapiens, UniProt P47871); experiment: cAMP response of HEK-293 cells stably expressing human glucagon receptor (HTRF)
T2 construct: expressed in transfected cells
T2 sequence (P47871 26-477): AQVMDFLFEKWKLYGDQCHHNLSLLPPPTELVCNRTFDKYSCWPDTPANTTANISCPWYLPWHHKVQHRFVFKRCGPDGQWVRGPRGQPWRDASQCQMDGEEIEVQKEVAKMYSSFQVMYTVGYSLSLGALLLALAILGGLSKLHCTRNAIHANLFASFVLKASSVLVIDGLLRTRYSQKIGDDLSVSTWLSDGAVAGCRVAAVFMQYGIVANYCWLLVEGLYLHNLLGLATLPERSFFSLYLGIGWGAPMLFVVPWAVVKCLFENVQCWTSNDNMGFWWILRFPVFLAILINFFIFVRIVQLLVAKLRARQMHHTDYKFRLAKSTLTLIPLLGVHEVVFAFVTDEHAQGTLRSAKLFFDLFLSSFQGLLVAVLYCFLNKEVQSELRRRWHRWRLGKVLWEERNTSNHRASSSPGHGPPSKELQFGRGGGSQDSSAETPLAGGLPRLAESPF
In short: as §1

[3] = target: T3, human GIP receptor (hGIP R) (Homo sapiens, UniProt P48546); experiment: cAMP response of HEK-293 cells stably expressing human GIP receptor (HTRF)
T3 construct: expressed in transfected cells
T3 sequence (P48546 22-466): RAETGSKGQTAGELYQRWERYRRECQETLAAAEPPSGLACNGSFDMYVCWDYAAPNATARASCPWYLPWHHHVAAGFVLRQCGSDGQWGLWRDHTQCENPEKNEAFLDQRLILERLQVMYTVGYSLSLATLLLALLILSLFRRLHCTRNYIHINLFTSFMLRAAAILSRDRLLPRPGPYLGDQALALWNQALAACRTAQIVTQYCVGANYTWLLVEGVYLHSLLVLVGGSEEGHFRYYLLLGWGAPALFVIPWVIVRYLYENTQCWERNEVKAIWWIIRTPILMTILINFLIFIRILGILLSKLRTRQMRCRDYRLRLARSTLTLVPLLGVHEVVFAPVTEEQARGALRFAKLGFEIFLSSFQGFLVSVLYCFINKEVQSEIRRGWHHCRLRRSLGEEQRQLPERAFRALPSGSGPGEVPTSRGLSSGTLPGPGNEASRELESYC
In short: as §1

Row | Structure (SMILES) | EC50 [1] [pM] | EC50 [2] [pM] | EC50 [3] [pM]
1 | CCCCCCCCCCCCCCCC(=O)N[C@@H](CCC(=O)NCCCC[C@H](NC(=O)[C@H](CCC(N)=O)NC(=O)[C@@H](NC(=O)[C@H](CO)NC(=O)[C@H](CC(C)C)NC(=O)[C@H](CC(=O)O)NC(=O)[C@H](CO)NC(=O)[C@@H](NC(=O)[C@H](Cc1ccccc1)NC(=O)[C@@H](NC(=O)CNC(=O)[C@H](CCC(N)=O)NC(=O)C(C)(C)NC(=O)[C@@H](N)Cc1ccc(O)cc1)[C@@H](C)O)[C@@H](C)O)[C@@H](C)CC)C(=O)N[C@@H](CCC(=O)O)C(=O)N[C@@H](CCCCN)C(=O)N[C@@H](CCCNC(=N)N)C(=O)N[C@@H](C)C(=O)N[C@@H](C)C(=O)N[C@@H](CC(C)C)C(=O)N[C@@H](CCC(=O)O)C(=O)N[C@@H](Cc1ccccc1)C(=O)N[C@H](C(=O)N[C@@H](CCC(=O)O)C(=O)N[C@@H](Cc1c[nH]c2ccccc12)C(=O)N[C@@H](CC(C)C)C(=O)N[C@@H](CCCCN)C(=O)N[C@@H](CC(N)=O)C(=O)N[C@H](C(=O)NCC(=O)N1CCC[C@H]1C(=O)N[C@@H](CO)C(=O)N[C@@H](CO)C(=O)NCC(=O)N[C@@H](C)C(=O)N1CCC[C@H]1C(=O)N1CCC[C@H]1C(=O)N1CCC[C@H]1C(=O)N[C@@H](CO)C(N)=O)[C@@H](C)O)[C@@H](C)CC)C(=O)O [SEQ ID NO: 33, Y-Aib-Q-G-T-F-T-S-D-L-S-I-Q-K(yE-x53)-EKRAALEFIEWLKNTGPSSGAPPPS-NH2] (H-Y[Aib]QGTFTSDLSIQK([γGlu-Palmitoyl])EKRAALEFIEWLKNTGPSSGAPPPS-NH2) | 8.1 | 109 | 88.2
2 | CCCCCCCCCCCCCCCC(=O)N[C@@H](CCC(=O)NCCCC[C@H](NC(=O)[C@H](CCC(N)=O)NC(=O)[C@@H](NC(=O)[C@H](CO)NC(=O)[C@H](CC(C)C)NC(=O)[C@H](CC(=O)O)NC(=O)[C@H](CO)NC(=O)[C@@H](NC(=O)[C@H](Cc1ccccc1)NC(=O)[C@@H](NC(=O)CNC(=O)[C@H](CCC(N)=O)NC(=O)C(C)(C)NC(=O)[C@@H](N)Cc1ccc(O)cc1)[C@@H](C)O)[C@@H](C)O)[C@@H](C)CC)C(=O)N[C@@H](CC(=O)O)C(=O)N[C@@H](CO)C(=O)N[C@@H](CCCNC(=N)N)C(=O)N[C@@H](CCCNC(=N)N)C(=O)N[C@@H](C)C(=O)N[C@@H](CCC(N)=O)C(=O)N[C@@H](CC(=O)O)C(=O)N[C@@H](Cc1ccccc1)C(=O)N[C@H](C(=O)N[C@@H](CCC(=O)O)C(=O)N[C@@H](Cc1c[nH]c2ccccc12)C(=O)N[C@@H](CC(C)C)C(=O)N[C@@H](CCCCN)C(=O)N[C@@H](C)C(=O)NCC(=O)NCC(=O)N1CCC[C@H]1C(=O)N[C@@H](CO)C(=O)N[C@@H](CO)C(=O)NCC(=O)N[C@@H](C)C(=O)N1CCC[C@H]1C(=O)N1CCC[C@H]1C(=O)N1CCC[C@H]1C(=O)N[C@@H](CO)C(N)=O)[C@@H](C)CC)C(=O)O [SEQ ID NO: 52, Y-Aib-Q-G-T-F-T-S-D-L-S-I-Q-K(yE-x53)-DSRRAQDFIEWLKAGGPSSGAPPPS-NH2] (H-Y[Aib]QGTFTSDLSIQK([γGlu-Palmitoyl])DSRRAQDFIEWLKAGGPSSGAPPPS-NH2) | 25.6 | 13.3 | 182
3 | CCCCCCCCCCCCCCCC(=O)N[C@@H](CCC(=O)NCCCC[C@H](NC(=O)[C@H](CCC(N)=O)NC(=O)[C@@H](NC(=O)[C@H](CO)NC(=O)[C@H](CC(C)C)NC(=O)[C@H](CC(=O)O)NC(=O)[C@H](CO)NC(=O)[C@@H](NC(=O)[C@H](Cc1ccccc1)NC(=O)[C@@H](NC(=O)CNC(=O)[C@H](CCC(N)=O)NC(=O)C(C)(C)NC(=O)[C@@H](N)Cc1ccc(O)cc1)[C@@H](C)O)[C@@H](C)O)[C@@H](C)CC)C(=O)N[C@@H](CCC(=O)O)C(=O)N[C@@H](CCC(N)=O)C(=O)N[C@@H](CCCNC(=N)N)C(=O)N[C@@H](C)C(=O)N[C@@H](C)C(=O)NC(C)(C)C(=O)N[C@@H](CCC(=O)O)C(=O)N[C@@H](Cc1ccccc1)C(=O)N[C@H](C(=O)N[C@@H](CCC(=O)O)C(=O)N[C@@H](Cc1c[nH]c2ccccc12)C(=O)N[C@@H](CC(C)C)C(=O)N[C@@H](CCCCN)C(=O)N[C@@H](CC(N)=O)C(=O)N[C@H](C(=O)NCC(=O)N1CCC[C@H]1C(=O)N[C@@H](CO)C(=O)N[C@@H](CO)C(=O)NCC(=O)N[C@@H](C)C(=O)N1CCC[C@H]1C(=O)N1CCC[C@H]1C(=O)N1CCC[C@H]1C(=O)N[C@@H](CO)C(N)=O)[C@@H](C)O)[C@@H](C)CC)C(=O)O [SEQ ID NO: 15, Y-Aib-Q-G-T-F-T-S-D-L-S-I-Q-K(yE-x53)-E-Q- R-A-A-Aib-E-F-I-E-W-L-K-N-T-G-P-S-S-G-A-P-P-P-S-NH2] (H-Y[Aib]QGTFTSDLSIQK([γGlu-Palmitoyl])EQRAA[Aib]EFIEWLKNTGPSSGAPPPS-NH2) | 6.9 | 54 | 11.4
4 | CCCCCCCCCCCCCCCC(=O)N[C@@H](CCC(=O)NCCCC[C@H](NC(=O)[C@H](CCC(N)=O)NC(=O)[C@@H](NC(=O)[C@H](CO)NC(=O)[C@H](CC(C)C)NC(=O)[C@H](CC(=O)O)NC(=O)[C@H](CO)NC(=O)[C@@H](NC(=O)[C@H](Cc1ccccc1)NC(=O)[C@@H](NC(=O)CNC(=O)[C@H](CCC(N)=O)NC(=O)C(C)(C)NC(=O)[C@@H](N)Cc1ccc(O)cc1)[C@@H](C)O)[C@@H](C)O)[C@@H](C)CC)C(=O)N[C@@H](CC(=O)O)C(=O)N[C@@H](CO)C(=O)N[C@@H](CCCNC(=N)N)C(=O)N[C@@H](C)C(=O)N[C@@H](C)C(=O)N[C@@H](CCC(N)=O)C(=O)N[C@@H](CC(=O)O)C(=O)N[C@@H](Cc1ccccc1)C(=O)N[C@H](C(=O)N[C@@H](CCC(=O)O)C(=O)N[C@@H](Cc1c[nH]c2ccccc12)C(=O)N[C@@H](CC(C)C)C(=O)N[C@@H](CCCCN)C(=O)N[C@@H](CCCNC(=N)N)C(=O)NCC(=O)NCC(=O)N1CCC[C@H]1C(=O)N[C@@H](CO)C(=O)N[C@@H](CO)C(=O)NCC(=O)N[C@@H](C)C(=O)N1CCC[C@H]1C(=O)N1CCC[C@H]1C(=O)N1CCC[C@H]1C(=O)N[C@@H](CO)C(N)=O)[C@@H](C)CC)C(=O)O [SEQ ID NO: 34, Y-Aib-Q-G-T-F-T-S-D-L-S-I-Q-K(yE-x53)-DSRAAQDFIEWLKRGGPSSGAPPPS-NH2] (H-Y[Aib]QGTFTSDLSIQK([γGlu-Palmitoyl])DSRAAQDFIEWLKRGGPSSGAPPPS-NH2) | 7.4 | 222 | 51.3
5 | CCCCCCCCCCCCCCCC(=O)N[C@@H](CCC(=O)NCCCC[C@H](NC(=O)[C@H](CCC(N)=O)NC(=O)[C@@H](NC(=O)[C@H](CO)NC(=O)[C@H](CC(C)C)NC(=O)[C@H](CC(=O)O)NC(=O)[C@H](CO)NC(=O)[C@@H](NC(=O)[C@H](Cc1ccccc1)NC(=O)[C@@H](NC(=O)CNC(=O)[C@H](CCC(N)=O)NC(=O)C(C)(C)NC(=O)[C@@H](N)Cc1ccc(O)cc1)[C@@H](C)O)[C@@H](C)O)[C@@H](C)CC)C(=O)N[C@@H](CC(=O)O)C(=O)N[C@@H](CCCCN)C(=O)N[C@@H](CCCNC(=N)N)C(=O)N[C@@H](C)C(=O)N[C@@H](C)C(=O)N[C@@H](CCC(N)=O)C(=O)N[C@@H](CC(=O)O)C(=O)N[C@@H](Cc1ccccc1)C(=O)N[C@H](C(=O)N[C@@H](CCC(=O)O)C(=O)N[C@@H](Cc1c[nH]c2ccccc12)C(=O)N[C@@H](CC(C)C)C(=O)N[C@@H](CCCCN)C(=O)N[C@@H](CCCCN)C(=O)NCC(=O)NCC(=O)N1CCC[C@H]1C(=O)N[C@@H](CO)C(=O)N[C@@H](CO)C(=O)NCC(=O)N[C@@H](C)C(=O)N1CCC[C@H]1C(=O)N1CCC[C@H]1C(=O)N1CCC[C@H]1C(=O)N[C@@H](CO)C(N)=O)[C@@H](C)CC)C(=O)O [SEQ ID NO: 44, Y-Aib-Q-G-T-F-T-S-D-L-S-I-Q-K(yE-x53)-DKRAAQDFIEWLKKGGPSSGAPPPS-NH2] (H-Y[Aib]QGTFTSDLSIQK([γGlu-Palmitoyl])DKRAAQDFIEWLKKGGPSSGAPPPS-NH2) | 9.7 | 55.2 | 25.5
6 | CCCCCCCCCCCCCCCC(=O)N[C@@H](CCC(=O)NCCCC[C@H](NC(=O)[C@H](CCC(N)=O)NC(=O)[C@@H](NC(=O)[C@H](CO)NC(=O)[C@H](CC(C)C)NC(=O)[C@H](CC(=O)O)NC(=O)[C@H](CO)NC(=O)[C@@H](NC(=O)[C@H](Cc1ccccc1)NC(=O)[C@@H](NC(=O)CNC(=O)[C@H](CCC(N)=O)NC(=O)C(C)(C)NC(=O)[C@@H](N)Cc1ccc(O)cc1)[C@@H](C)O)[C@@H](C)O)[C@@H](C)CC)C(=O)N[C@@H](CCC(=O)O)C(=O)N[C@@H](CCCCN)C(=O)N[C@@H](CCCNC(=N)N)C(=O)N[C@@H](Cc1ccc(O)cc1)C(=O)N[C@@H](C)C(=O)NC(C)(C)C(=O)N[C@@H](CCC(=O)O)C(=O)N[C@@H](Cc1ccccc1)C(=O)N[C@H](C(=O)N[C@@H](CCC(=O)O)C(=O)N[C@@H](Cc1c[nH]c2ccccc12)C(=O)N[C@@H](CC(C)C)C(=O)N[C@@H](CCCCN)C(=O)N[C@@H](CC(N)=O)C(=O)N[C@H](C(=O)NCC(=O)N1CCC[C@H]1C(=O)N[C@@H](CO)C(=O)N[C@@H](CO)C(=O)NCC(=O)N[C@@H](C)C(=O)N1CCC[C@H]1C(=O)N1CCC[C@H]1C(=O)N1CCC[C@H]1C(=O)N[C@@H](CO)C(N)=O)[C@@H](C)O)[C@@H](C)CC)C(=O)O [SEQ ID NO: 13, Y-Aib-Q-G-T-F-T-S-D-L-S-I-Q-K(yE-x53)-E-K-R-Y-A-Aib-EFIEWLKNTGPSSGAPPPSN H2] (H-Y[Aib]QGTFTSDLSIQK([γGlu-Palmitoyl])EKRYA[Aib]EFIEWLKNTGPSSGAPPPS-NH2) | 14.1 | 20.2 | 26.3
